According to the NIST ThermoML archive (doi:10.1021/je060271a):

Conditions: 303.15 K, Liquid, Vibrating tube method

CCCCC(=O)OCC(COC(=O)CCCC)(COC(=O)CCCC)COC(=O)CCCC [pentaerythritol tetrapentanoate]
Conditions | mass density [kg/m3]
2232.7 kPa | 1012.2
2240.1 kPa | 1012.3
2247.8 kPa | 1012.4
2256.6 kPa | 1012.3
2264.4 kPa | 1012.4
2272.4 kPa | 1012.3
2281.6 kPa | 1012.4
2289.2 kPa | 1012.3
2297.4 kPa | 1012.3
2305.2 kPa | 1012.3
2314.7 kPa | 1012.3
2322.9 kPa | 1012.2
2330.3 kPa | 1012.3
2339.9 kPa | 1012.4
2348.2 kPa | 1012.5
2356.9 kPa | 1012.5
2365.6 kPa | 1012.3
2373.5 kPa | 1012.5
2383.8 kPa | 1012.3
2391.9 kPa | 1012.4
2402.3 kPa | 1012.4
2411 kPa | 1012.3
2419.3 kPa | 1012.5
2429.4 kPa | 1012.4
2438.1 kPa | 1012.4
2446.9 kPa | 1012.4
2455.6 kPa | 1012.5
2464.8 kPa | 1012.4
2475.4 kPa | 1012.4
2484.4 kPa | 1012.5
2493.4 kPa | 1012.4
2504.2 kPa | 1012.4
2513.4 kPa | 1012.4
2522.4 kPa | 1012.5
2531.8 kPa | 1012.5
2543 kPa | 1012.6
2552.4 kPa | 1012.5
2561.7 kPa | 1012.5
2573.2 kPa | 1012.4
2582.7 kPa | 1012.6
2592.3 kPa | 1012.5
2601.8 kPa | 1012.5
2613.6 kPa | 1012.6
2623.2 kPa | 1012.5
2632.7 kPa | 1012.5
2642.9 kPa | 1012.6
2654.9 kPa | 1012.6
2664.6 kPa | 1012.5
2676.8 kPa | 1012.5
2686.8 kPa | 1012.6
2697.2 kPa | 1012.6
2707.4 kPa | 1012.6
2719.9 kPa | 1012.6
2730.3 kPa | 1012.6
2740.9 kPa | 1012.6
2751.7 kPa | 1012.5
2764.8 kPa | 1012.6
2775.1 kPa | 1012.6
2785.8 kPa | 1012.7
2799.2 kPa | 1012.6
2810.1 kPa | 1012.7
2820.9 kPa | 1012.7
2833.5 kPa | 1012.7
2844.6 kPa | 1012.7
2855.9 kPa | 1012.6
2869.2 kPa | 1012.7
2880.7 kPa | 1012.7
2892.5 kPa | 1012.8
2904.8 kPa | 1012.8
2916.2 kPa | 1012.6
2930.1 kPa | 1012.7
2941.7 kPa | 1012.8
2953.3 kPa | 1012.8
2967.4 kPa | 1012.8
2979.5 kPa | 1012.7
2991.5 kPa | 1012.8
3006.1 kPa | 1012.7
3018.4 kPa | 1012.8
3030.5 kPa | 1012.7
3043.3 kPa | 1012.8
3058.9 kPa | 1012.8
3070.7 kPa | 1012.9
3083.2 kPa | 1012.8
3096 kPa | 1012.8
3108.7 kPa | 1012.8
3123.9 kPa | 1012.9
3136.6 kPa | 1012.8
3149.9 kPa | 1013
3165.5 kPa | 1012.9
3179.1 kPa | 1013
3192.6 kPa | 1012.9
3205.9 kPa | 1012.9
3222.1 kPa | 1012.9
3236.3 kPa | 1012.9
3249.8 kPa | 1012.8
3263.8 kPa | 1013
3280.5 kPa | 1013
3294.2 kPa | 1013
3310.8 kPa | 1013
3324.8 kPa | 1013
3339.2 kPa | 1013.1
3353.6 kPa | 1013
3368.2 kPa | 1013
3385.5 kPa | 1013
3400.2 kPa | 1013.1
3415.1 kPa | 1013.1
3433 kPa | 1013.1
3448.4 kPa | 1012.9
3463.3 kPa | 1013.1
3478.2 kPa | 1013.1
3496.8 kPa | 1013.2
3512 kPa | 1013
3527.8 kPa | 1013.1
3546.5 kPa | 1013.2
3562.5 kPa | 1013.1
3578.4 kPa | 1013.2
3594 kPa | 1013.2
3613.4 kPa | 1013.2
3630 kPa | 1013
3646.7 kPa | 1013.2
3663.3 kPa | 1013.1
3683.1 kPa | 1013.2
3699.3 kPa | 1013.2
3716.7 kPa | 1013.2
3734 kPa | 1013.3
3753.9 kPa | 1013.3
3771.2 kPa | 1013.3
3789.1 kPa | 1013.3
3806.2 kPa | 1013.3
3827.7 kPa | 1013.4
3845.4 kPa | 1013.4
3863.8 kPa | 1013.3
3881.9 kPa | 1013.3
3903.9 kPa | 1013.3
3927.5 kPa | 1013.3
4003.7 kPa | 1013.4
4122.2 kPa | 1013.5
4149.2 kPa | 1013.6
4165.7 kPa | 1013.5
4185.8 kPa | 1013.5
4202.9 kPa | 1013.6
4220.2 kPa | 1013.5
4238.1 kPa | 1013.5
4257.1 kPa | 1013.5
4275.3 kPa | 1013.5
4293.5 kPa | 1013.7
4311 kPa | 1013.6
4333.3 kPa | 1013.7
4464.7 kPa | 1013.8
4605.8 kPa | 1013.8
4684.8 kPa | 1013.8
4702.2 kPa | 1013.9
4719.7 kPa | 1014
4737.5 kPa | 1013.9
4776.3 kPa | 1013.9
4798.6 kPa | 1013.9
4817.1 kPa | 1014
4836 kPa | 1013.9
4855.9 kPa | 1014
4875 kPa | 1013.9
4897.8 kPa | 1014.2
